# Experimental data taken from US11261186B2, “Biaryl derivative as GPR120 agonist” (LG CHEM, LTD., priority 2014, dated 2022).
# Biological target: T1, hGPR120 (Homo sapiens, UniProt Q5NUL3)
# T1 construct: expressed in transfected cells; host or cells: CHO-K1
# T1 sequence (Q5NUL3 1-361): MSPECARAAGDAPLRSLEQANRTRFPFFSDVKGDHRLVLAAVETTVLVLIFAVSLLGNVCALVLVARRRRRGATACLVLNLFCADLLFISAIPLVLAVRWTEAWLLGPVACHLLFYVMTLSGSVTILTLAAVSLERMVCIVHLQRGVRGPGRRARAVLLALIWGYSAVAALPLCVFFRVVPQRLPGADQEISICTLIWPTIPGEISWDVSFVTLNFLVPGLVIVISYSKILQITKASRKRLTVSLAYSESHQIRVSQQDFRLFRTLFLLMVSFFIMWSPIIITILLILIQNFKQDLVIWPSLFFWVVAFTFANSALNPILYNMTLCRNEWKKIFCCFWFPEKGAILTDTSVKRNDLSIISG
# Experiment: Measurement of Activity of GPR120 Agonist (Cell-Based Assay), Calcium 5 dye fluorescence
# Settings: CHO-K1 cells expressing Ga16 and hGPR120
# Description: CHO-K1 cells expressing Ga16 and hGPR120 were dispensed into each well of a 96-well plate (3×10^4 cells/100 μl/well) and then incubated in 5% CO2, 37° C. incubator for 18 hours. Each well was treated with 100 μl of Calcium 5 dye (Molecular Devices) solution including 2% DMSO and then incubated in 5% CO2, 37° C. incubator for 1 hour. Serially diluted GPR120 agonists were prepared to a final concentration of 0.5% DMSO in a 96-well plate. Each well was treated with 50 μl of the agonist compounds using Plexstation II, and then fluorescence was measured at Ex 485 nm and Em 525 nm.
# Fluorescence increased by the serially diluted GPR120 agonists is calculated as a relative percent (%) value based on the fluorescence represented by the treatment of 1% DMSO only. […] The calculation of measurement was carried out by using statistical software (Prizm).
# Activity is denoted based on the following criteria: […]
row,SMILES,EC50 [nM]
1,"CN1c2ccc(-c3cccc(OC4CCCC4)n3)cc2CCC1CCC(=O)O (stereo not shown) [Example 12, 3-[6-(6-cyclopentyloxy-pyridin-2-yl)-1-methyl-1,2,3,4-tetrahydro-quinolin-2-yl]-propionic acid]",200 to 2000
2,"CC(C)(CCCC(=O)O)c1c(F)cc(-c2cccnc2SC2CCC2)cc1F [Example 164, 5-[4-(2-cyclobutylsulfanyl-pyridin-3-yl)-2,6-difluoro-phenyl]-5-methyl-hexanoic acid]",200 to 2000
3,"O=C(O)C1CC1COc1c(F)cc(-c2nccc(OC3CCC3)n2)cc1F (stereo not shown) [Example 543, 2-[4-(4-cyclobutoxy-pyrimidin-2-yl)-2,6-difluoro-phenoxymethyl]-cyclopropanecarboxylic acid]",< 200
4,"COc1cccc2c1ccn2-c1cc(F)c(OCCCC(=O)O)c(F)c1 [Example 478, 4-[2,6-difluoro-4-(4-methoxyindol-1-yl)phenoxy]butanoic acid]",200 to 2000
5,"Fc1cc(-c2cccnc2SC2CCC2)cc(F)c1OCCCc1nnn[nH]1 [Example 25, 2-cyclobutylsulfanyl-3-{3,5-difluoro-4-[3-(1H-tetrazol-5-yl)propoxy]phenyl}pyridin]",200 to 2000
6,"O=C(O)CCCC(F)(F)c1ccc(-c2cc(F)cc(OC3CCC3)c2)cc1 [Example 414, 5-(5′-cyclobutoxy-3′-fluoro-biphenyl-4-yl)-5,5-difluoro-pentanoic acid]",< 200
7,"CC(C)Oc1cncc(-c2cc(F)c(OCCCC(=O)O)c(Cl)c2)n1 [Example 436, 4-[2-chloro-6-fluoro-4-(6-isopropoxy-pyrazin-2-yl)-phenoxy]-butyric acid]",< 200
8,"O=C(O)CC1CCN(c2c(F)cc(-c3nccc(Oc4ccc(C(F)(F)F)cc4)n3)cc2F)CC1 [Example 610, 2-[1-[2,6-difluoro-4-[4-[4-(trifluoromethyl)phenoxy]pyrimidin-2-yl]phenyl]-4-piperidyl]acetic acid]",200 to 2000
9,"O=C(O)CC1CCN(c2c(F)cc(-c3cccnc3OC3CCCC3)cc2F)CC1 [Example 102, 2-[1-[4-[2-(cyclopentoxy)-3-pyridyl]-2,6-difluoro-phenyl]-4-piperidyl]acetic acid]",< 200
10,"O=C(O)CCC1CC1c1c(F)cc(-c2cccnc2OC2CCCC2)cc1F (stereo not shown) [Example 175, 3-{2-[4-(2-cyclopentyloxy-pyridin-3-yl)-2,6-difluoro-phenyl]-cyclopropyl}-propanoic acid]",< 200
11,"CC(CCCC(=O)O)c1c(F)cc(-c2cccc(OC3CCC3)n2)cc1F (stereo not shown) [Example 41, 5-[4-(6-cyclobutoxy-2-pyridyl)-2,6-difluoro-phenyl]hexanoic acid]",< 200
12,"O=C(O)CC1CCN(c2c(F)cc(-c3cccc(OCC4CC4)n3)cc2F)C1 (stereo not shown) [Example 560, {1-[4-(6-cyclopropylmethoxy-pyridin-2-yl)-2,6-difluoro-phenyl]-pyrrolidin-3-yl}-acetic acid]",< 200
13,"CN(CCCC(=O)O)c1c(F)cc(-c2cccc(N3CCCC3)n2)cc1F [Example 467, 4-[2,6-difluoro-N-methyl-4-(6-pyrrolidin-1-yl-2-pyridyl)anilino]butanoic acid]",200 to 2000
14,"Oc1cc(CCNc2c(F)cc(-c3cccnc3OC3CCCC3)cc2F)on1 [Example 90, 5-[2-[4-[2-(cyclopentoxy)-3-pyridyl]-2,6-difluoro-anilino]ethyl]isoxazol-3-ol]",200 to 2000
15,"CC(Oc1cccc(-c2cc(F)c(N3CCC(CC(=O)O)CC3)c(F)c2)n1)C(F)(F)F (stereo not shown) [Example 316, 2-[1-[2,6-difluoro-4-[6-(2,2,2-trifluoro-1-methyl-ethoxy)-2-pyridyl]phenyl]-4-piperidyl]acetic acid]",200 to 2000
16,"O=C(O)CCC1CC1c1c(F)cc(-c2cccnc2NC2CCCC2)cc1F (stereo not shown) [Example 183, 3-{2-[4-(2-cyclopentylamino-pyridin-3-yl)-2,6-difluoro-phenyl]-cyclopropyl}-propanoic acid]",< 200
17,"CC1(C)Cc2c(cccc2-c2ccc(OCCCC(=O)O)cc2)O1 [Example 193, 4-[4-(2,2-dimethyl-2,3-dihydro-benzofuran-4-yl)-phenoxy]-butyric acid]",< 200
18,"CC(C)Sc1cccc(-c2cc(F)c(NCCCCC(=O)O)c(F)c2)n1 [Example 96, 5-[2,6-difluoro-4-(6-isopropylsulfanyl-2-pyridyl)anilino]pentanoic acid]",200 to 2000
19,"O=C(O)CC1CCN(c2c(F)cc(-c3cccc(OCC4CC4)n3)cc2F)CC1 [Example 106, 2-[1-[4-[6-(cyclopropylmethoxy)-2-pyridyl]-2,6-difluoro-phenyl]-4-piperidyl]acetic acid]",< 200

row,SMILES,EC50 [nM]
1,"CN(CCCC(=O)O)c1c(F)cc(-c2ccccc2N2CCCC2)cc1F [Example 221, 4-[(3,5-difluoro-2′-pyrrolidin-1-yl-biphenyl-4-yl)-methyl-amino]-butyric acid]",< 200
2,"CN(CCCC(=O)O)c1c(F)cc(-c2cccc3c2OC(F)(F)O3)cc1F [Example 203, 4-{[4-(2,2-difluoro-benzo[1,3]dioxol-4-yl)-2,6-difluoro-phenyl]-methyl-amino}-butyric acid]",< 200
3,"COCCCOc1cc(C)nc(-c2cc(F)c(N3CCC(CC(=O)O)CC3)c(F)c2)n1 [Example 601, (1-{2,6-difluoro-4-[4-(3-methoxy-propoxy)-6-methyl-pyrimidin-2-yl]-phenyl}-piperidin-4-yl)-acetic acid]",200 to 2000
4,"COc1ccc(-c2cc(F)c(SCCCC(=O)O)c(F)c2)c2c1OC(C)(C)C2 [Example 258, 4-[2,6-difluoro-4-(7-methoxy-2,2-dimethyl-2,3-dihydro-benzofuran-4-yl)-phenylsulfanyl]-butyric acid]",< 200
5,"c1cnc(SC2CCC2)c(-c2ccc(CCCc3nnn[nH]3)cc2)c1 [Example 26, 2-cyclobutylsulfanyl-3-{4-[3-(1H-tetrazol-5-yl)propyl]phenyl}pyridine]",200 to 2000
6,"CCOc1csc(-c2cc(F)c(N3CCC(CC(=O)O)CC3)c(F)c2)n1 [Example 367, {1-[4-(4-ethoxy-thiazol-2-yl)-2,6-difluoro-phenyl]-piperidin-4-yl}acetic acid]",200 to 2000
7,"CC(C)Sc1ncccc1-c1cc(F)c(N2CCC(CCC(=O)O)CC2)c(F)c1 [Example 126, 3-[1-[2,6-difluoro-4-(2-isopropylsulfanyl-3-pyridyl)phenyl]-4-piperidyl]propanoic acid]",< 200
8,"CC(CCCC(=O)O)c1c(F)cc(-c2cccc(OCC3CC3)c2)cc1F (stereo not shown) [Example 413, 5-(3′-cyclopropylmethoxy-3,5-difluoro-biphenyl-4-yl)-hexanoic acid]",< 200
9,"CN(CCCCC(=O)O)c1c(F)cc(-c2cccc(OCC3CC3)n2)cc1F [Example 101, 5-[4-[6-(cyclopropylmethoxy)-2-pyridyl]-2,6-difluoro-N-methyl-anilino]pentanoic acid]",< 200
10,"CC(Cc1cc(O)no1)c1c(F)cc(-c2cccnc2OC2CCCC2)cc1F (stereo not shown) [Example 88, 5-[2-[4-[2-(cyclopentoxy)-3-pyridyl]-2,6-difluoro-phenyl]propyl]isoxazol-3-ol]",< 200
11,"O=C(O)CCCOc1c(F)cc(-c2csc(COCC3CC3)c2)cc1F [Example 566, 4-[4-(5-cyclopropylmethoxymethyl-thiophen-3-yl)-2,6-difluoro-phenoxy]-butanoic acid]",< 200
12,"C[C@@H](CCCC(=O)O)c1c(F)cc(-c2cccnc2SC2CCC2)cc1F [Example 229, (S)-5-[4-(2-cyclobutylsulfanyl-pyridin-3-yl)-2,6-difluoro-phenyl]-hexanoic acid]",< 200
13,"CC(C)Sc1ncccc1-c1cc(F)c(N2CC[C@@H](CC(=O)O)C2)c(F)c1 [Example 136, 2-[(3S)-1-[2,6-difluoro-4-(2-isopropylsulfanyl-3-pyridyl)phenyl]pyrrolidin-3-yl]acetic acid]",< 200
14,"O=C(O)CC1CN(c2c(F)cc(-c3cccnc3SC3CCCC3)cc2F)C1 [Example 112, 2-[1-[4-(2-cyclopentylsulfanyl-3-pyridyl)-2,6-difluoro-phenyl]azetidin-3-yl]acetic acid]",< 200
15,"CC(CCCC(=O)O)c1c(F)cc(-c2ccccc2NC2CCCC2)cc1F (racemic) [Example 47, 5-(2′-cyclopentylamino-3,5-difluoro-bisphenyl-4-yl)hexanoic acid]",< 200
16,"COc1ccc(-c2cc(F)c(N3CC(CC(=O)O)C3)c(F)c2)c2c1OC(C)(C)C2 [Example 285, {1-[2,6-difluoro-4-(7-methoxy-2,2-dimethyl-2,3-dihydro-benzofuran-4-yl)-phenyl]-azetidin-3-yl}-acetic acid]",2000 to 20000
17,"Cc1cc(OC2CCC2)nc(-c2cc(F)c(N(C)CCCC(=O)O)c(F)c2)n1 [Example 484, 4-[4-[4-(cyclobutoxy)-6-methyl-pyrimidin-2-yl]-2,6-difluoro-N-methyl-anilino]butanoic acid]",< 200
18,"O=C(O)CCC1CC1c1c(F)cc(-c2cccnc2OCC2CCC2)cc1F (stereo not shown) [Example 189, 3-{2-[4-(2-cyclobutylmethoxy-pyridin-3-yl)-2,6-difluoro-phenyl]-cyclopropyl}-propanoic acid]",< 200
